Each structure is given as a SMILES string. Read-outs that look alike come from different tables or passages of the source.

Consider 8 compounds from paper PMC10138506, “Design, Synthesis and Cytotoxic Activity of Novel Salicylaldehyde Hydrazones against Leukemia and Breast Cancer” (International Journal of Molecular Sciences, 2023).

The test system of data set [1] is SaOS-2 cells. Kind of data set: MTT-dye reduction cytotoxicity assay, SaOS-2. The class given is cell-based, human. The following applies: for IC50: Homo sapiens, SAOS-2; for SI (selectivity index) SaOS-2: SI = IC50 (HEK-293)/IC50 (cancer cells). The protocol: (§1) The research included four leukemic and three cancer human cell lines: HL-60 (acute myeloid leukemia), SKW-3 (KE-37 derivative) (T-cell leukemia), BV-173 and K-562 (chronic myeloid leukemia), MDA-MB-231 (ER-negative breast carcinoma), MCF-7 (ER-positive breast adenocarcinoma), and SaOS-2 (osteogenic sarcoma). The cells were provided from the German Collection of Microorganisms and Cell Cultures (DSMZ, Braunschweig, Germany). The solid tumor cell lines (MDA-MB-231, MCF-7, and SaOS-2) were incubated in 90% RPMI-1640 supplemented with 10% fetal bovine serum (FBS), non-essential amino acids, 1 mM sodium pyruvate, and […] human insulin as monolayer adherent cultures. The remaining cell lines were cultivated as a suspension culture in cell culture flasks at 37 °C in an incubator “BB 16-Function Line” Heraeus (Kendro, Hanau, Germany) with humidified atmosphere and 5% CO2 under standard conditions–RPMI-1640 liquid media supplemented with 10% FBS and 2 mM L-glutamine. The cells were kept in log phase by supplementing with fresh media after removing cell suspension aliquots two or three times each week.
(§2) At least eight wells were used for each concentration.
In general terms: Tetrazolium assays rely on reduction of a dye to a coloured formazan, in cell work by metabolically active cells.

Data set [2] relates to BV-173 cells. Kind of data set: MTT-dye reduction cytotoxicity assay, BV-173. The class given is cell-based, human. The following applies: for IC50: Homo sapiens, BV-173; for SI (selectivity index) BV-173: SI = IC50 (HEK-293)/IC50 (cancer cells). The protocol:
as §1, §2

Data set [3] concerns K-562 cells. Kind of data set: MTT-dye reduction cytotoxicity assay, K-562. The class given is cell-based, human. The conditions noted are these: for IC50: Homo sapiens, K562; for SI (selectivity index) K-562: SI = IC50 (HEK-293)/IC50 (cancer cells); for Ligand Efficiency (LE) K-562: LE = pIC50/number of heavy atoms. The protocol: as §1, §2
The test system of data set [4] is KE-37 cells. Description: MTT-dye reduction cytotoxicity assay, KE-37. The following applies: for IC50: Homo sapiens, KE-37; for SI (selectivity index) KE-37: SI = IC50 (HEK-293)/IC50 (cancer cells). The class given is cell-based, human. The protocol:
as §1, §2

Data set [5] deals with HL-60, KE-37, K-562, BV-173, SaOS-2, MDA-MB-231, MCF-7 cell lines. Description: Average over the cancer cell lines tested (LE, SI). The class given is cell-based, human. The following applies: average over seven cancer cell lines. The protocol: (§3) To assess the selectivity of the newly synthesized derivatives, they were tested on the normal human embryonic kidney HEK-293 cell line. The derived IC50 values were used to calculate the selectivity index according to the formula SI = IC50 (normal cells)/IC50 (cancer cells).
The training set of salicylaldehyde hydrazones contained 11 compounds synthesized and tested before in our Lab. Their anticancer activities were measured and expressed as IC50 values on the following cell lines: HL-60, KE-37, K-562, BV-173, SaOS-2, MDA-MB-231, and MCF-7. For the purposes of SAR analysis, the IC50 values were converted in p-units (−logIC50) and ligand efficiencies (LEs) were calculated according to the formula: LE = pIC50/n, where n is the count of non-hydrogen atoms in the molecule.

For data set [6], the system named is MDA-MB-231 cells. Description: MTT-dye reduction cytotoxicity assay, MDA-MB-231. The class given is cell-based, human. The following applies: for IC50: Homo sapiens, MDA-MB-231; for SI (selectivity index) MDA-MB-231: SI = IC50 (HEK-293)/IC50 (cancer cells). The protocol:
as §1, §2

Data set [7] deals with MCF-7 cells. Kind of data set: MTT-dye reduction cytotoxicity assay, MCF-7. The class given is cell-based, human. The following applies: for IC50: Homo sapiens, MCF7; for SI (selectivity index) MCF-7: SI = IC50 (HEK-293)/IC50 (cancer cells). The protocol:
as §1, §2

For data set [8], the system named is HL-60 cells. Description: MTT-dye reduction cytotoxicity assay, HL-60. The following applies: for IC50: Homo sapiens, HL-60; for SI (selectivity index) HL-60: SI = IC50 (HEK-293)/IC50 (cancer cells). The class given is cell-based, human. The protocol:
as §1, §2

The nature of data set [9]: MTT-dye reduction cytotoxicity assay, normal HEK-293. The conditions noted are these: human, HEK-293 cells (normal human embryonic kidney). The protocol: as §3
The cytotoxic activity of the examined substances was determined using Mossman’s MTT [3-(4,5-dimethylthiazol-2-yl)-2,5-diphenyltetrazolium bromide] dye reduction assay. The approach is based on the reduction of the yellow tetrazolium salt MTT to a violet formazan in live cells via mitochondrial succinate dehydrogenase. In brief, exponentially developing cells were seeded at a density of 1 × 10^5 cells per ml in 96-well flat-bottomed microplates (100 μL/well), and after 24 h of incubation at 37 °C, they were treated to varied doses of the tested substances for 72 h. At least eight wells were used for each concentration. Following the incubation with the test compounds, aliquots of 10 μL MTT solution (10 mg/mL in PBS) were applied to each well. The microplates were then incubated at 37 °C for 4 h before the MTT-formazan crystals were dissolved with 100 μL/well 5% HCOOH in 2-propanol. The MTT-formazan absorbance was measured at 580 nm using a microprocessor-controlled microplate reader (Labexim LMR-1).
The cell survival data were standardized as a percentage of the untreated control (set as 100% viability). The biological data were processed statistically using Student’s t-test, where values were considered statistically significant at p ≤ 0.05. The corresponding IC50 values were obtained to allow quantitative merit for the assessment of the relative potencies of the compounds under investigation. Each data point represents the arithmetic mean ± standard deviation (sd) of at least eight independent experiments.

Setting [10] is: 72 h treatment, read-out: IC50 exp, SaOS-2.
The mark [11] stands for this setting: 72 h treatment, read-out: IC50 exp, BV-173.
Setting [12] is: 72 h treatment, read-out: IC50 exp, K-562.
Where [13] appears, read: 72 h treatment, read-out: IC50 exp, KE-37.
The mark [14] stands for this setting: 72 h treatment, read-out: IC50 exp, MDA-MB-231.
Where [15] appears, read: 72 h treatment, read-out: IC50 exp, MCF-7.
Where [16] appears, read: 72 h treatment, read-out: IC50 exp, HL-60.
Where [17] appears, read: training set, some activities published before [26-32], the rest measured for this study, read-out: IC50 ± standard deviation, SaOS-2.
[18] abbreviates: training set, some activities published before [26-32], the rest measured for this study, read-out: IC50 ± standard deviation, BV-173.
The mark [19] stands for this setting: training set, some activities published before [26-32], the rest measured for this study, read-out: IC50 ± standard deviation, K-562.
The mark [20] stands for this setting: training set, some activities published before [26-32], the rest measured for this study, read-out: IC50 ± standard deviation, KE-37.
Where [21] appears, read: training set, some activities published before [26-32], the rest measured for this study, read-out: IC50 ± standard deviation, MDA-MB-231.
[22] abbreviates: training set, some activities published before [26-32], the rest measured for this study, read-out: IC50 ± standard deviation, MCF-7.
The mark [23] stands for this setting: training set, some activities published before [26-32], the rest measured for this study, read-out: IC50 ± standard deviation, HL-60.

For the compound `COc1ccc(C=NNC(=O)c2ccncc2)c(O)c1` [Compound 14, 4-methoxysalicylaldehyde isonicotinoylhydrazone], the IC50 – broadly, the concentration that inhibits the measured activity by half – in data set [1] (setting [10]) amounted to 1.66 ± 0.24 µM; in data set [2] (setting [11]) it was 0.97 ± 0.12 µM; in [3] (setting [12]), 0.05 ± 0.008 µM; in data set [4] (setting [13]), 2.26 ± 0.73 µM; in [6] (setting [14]), 1.22 ± 0.19 µM; in data set [7] (setting [15]), 0.23 ± 0.04 µM. Further, the IC50 in [8] (setting [16]) amounted to 0.06 ± 0.004 µM. Besides, the “SI (selectivity index) SaOS-2” value in [1] is given as 25. The “SI (selectivity index) BV-173” value in data set [2] amounted to 42. In addition, the “SI (selectivity index) K-562” value in [3] came out at 821. For the same compound, in data set [4], the “SI (selectivity index) KE-37” value was 18. In data set [5], the “average SI” value was 258. Besides, the “SI (selectivity index) MDA-MB-231” value in data set [6] was found to be 34. In [7], the “SI (selectivity index) MCF-7” value was 179. In addition, the “SI (selectivity index) HL-60” value in [8] came to 685. In data set [9], this compound had a half-maximal inhibitory concentration (IC50) at 72 h of 41.1 ± 2.05 µM.
`O=C(N/N=C/c1cc([N+](=O)[O-])ccc1O)c1ccccc1` [Compound 6]: the IC50 came out at 41.9 ± 5.1 µM in [1] (setting [17]); 2.39 ± 0.3 µM in data set [2] (setting [18]); 7.94 ± 2.3 µM in data set [3] (setting [19]); 6.38 ± 0.2 µM in [4] (setting [20]); 2.8 ± 2.7 µM in [6] (setting [21]); 0.25 ± 0.03 µM in [7] (setting [22]). The IC50 in [8] (setting [23]) was 5.64 ± 1.1 µM. In addition, in [3], the “Ligand Efficiency (LE) K-562” value came out at 0.243.
Regarding `COc1cccc(/C=N/NC(=O)c2ccc(O)cc2)c1O` [Compound 2], the IC50 in [1] (setting [17]) worked out at 19.2 ± 3.1 µM; in [2] (setting [18]), 7.8 ± 2 µM; in data set [3] (setting [19]), 14.3 ± 2.9 µM; in data set [4] (setting [20]) it was 7.6 ± 2.1 µM; in data set [6] (setting [21]), 24.2 ± 3.8 µM; in [7] (setting [22]), 19.7 ± 2.2 µM. Besides, the IC50 in data set [8] (setting [23]) stood at 9.2 ± 2.4 µM. In addition, the “Ligand Efficiency (LE) K-562” value in data set [3] turned out to be 0.231.
Regarding `COc1ccc(O)c(/C=N/NC(=O)c2ccncc2)c1` [Compound 11], the IC50 in data set [2] (setting [18]) was 2.95 ± 0.8 µM; in data set [4] (setting [20]), 10.9 ± 2.2 µM; in [6] (setting [21]), 5.58 ± 1.3 µM; in data set [7] (setting [22]), 3 ± 0.6 µM; in data set [8] (setting [23]) it was 6.68 ± 1.4 µM.
As for `COc1cccc(/C=N/NC(=O)c2ccncc2)c1O` [Compound 3], the IC50 in data set [1] (setting [17]) amounted to 11.9 ± 3.2 µM; in data set [2] (setting [18]), 3.7 ± 1.1 µM; in data set [3] (setting [19]) it was 8.7 ± 2 µM; in [4] (setting [20]), 3.3 ± 1.2 µM; in data set [6] (setting [21]), 16.4 ± 2 µM; in [7] (setting [22]) it was 11.7 ± 2.4 µM. Moreover, the IC50 in data set [8] (setting [23]) was found to be 2.7 ± 0.9 µM. In addition, the “Ligand Efficiency (LE) K-562” value in data set [3] was found to be 0.253.
`O=C(N/N=C/c1cc(Br)ccc1O)c1ccc(O)cc1` [Compound 4]: the IC50 amounted to 50 ± 5.7 µM in data set [1] (setting [17]); 2.83 ± 0.3 µM in data set [3] (setting [19]); 3 ± 0.5 µM in data set [4] (setting [20]); 20.1 ± 3.9 µM in data set [6] (setting [21]); 8.88 ± 2.7 µM in [7] (setting [22]); 3.14 ± 1.1 µM in [8] (setting [23]). Besides, the “Ligand Efficiency (LE) K-562” value in data set [3] came to 0.277.
As for `COc1ccc(C=NNC(=O)c2ccccc2)c(O)c1` [Compound 12, 4-methoxysalicylaldehyde benzoylhydrazone], the melting point (in general, the temperature of the solid-liquid transition) fell in the range of 182 to 183 °C. The IC50 in [1] (setting [10]) turned out to be 1.68 ± 0.15 µM. For the same compound, in data set [1], the “SI (selectivity index) SaOS-2” value was 22. Moreover, the IC50 in data set [2] (setting [11]) was determined as 1.21 ± 0.11 µM. The “SI (selectivity index) BV-173” value in data set [2] is listed as 31. The IC50 in data set [3] (setting [12]) was found to be 0.03 ± 0.002 µM. The “SI (selectivity index) K-562” value in data set [3] was 1254. In data set [4] (setting [13]), the IC50 was found to be 1.99 ± 0.17 µM. In addition, in data set [4], the “SI (selectivity index) KE-37” value worked out at 19. In addition, the “average SI” value in [5] was 350. Also, the IC50 in data set [6] (setting [14]) was 2.31 ± 0.25 µM. Moreover, the “SI (selectivity index) MDA-MB-231” value in [6] is 16. The IC50 in [7] (setting [15]) was determined as 0.23 ± 0.02 µM. Further, the “SI (selectivity index) MCF-7” value in [7] worked out at 164. In addition, in [8] (setting [16]), the IC50 turned out to be 0.04 ± 0.005 µM. Further, the “SI (selectivity index) HL-60” value in [8] worked out at 941. In data set [9], this compound returned a half-maximal inhibitory concentration (IC50) at 72 h of 37.6 ± 3.41 µM.
Consider `COc1ccc(C=NNC(=O)c2ccncc2)c(O)c1` (hydrate or solvate) [Compound 14, 4-methoxysalicylaldehyde isonicotinoylhydrazone], for which the melting point fell in the range of 232 to 233 °C.
